From patent US11090319B2, “Therapeutic uses of pharmaceutical compositions comprising cyclic boronic acid ester derivatives” (Melinta Subsidiary Corp., priority 2010, dated 2021)

How the values were obtained:
[1] = test system: AB1052 Acinetobacter baumannii OXA-24; assay: Checkerboard assay, biapenem potentiation; conditions: Biapenem MIC 8-fold; AB1052 OXA-24 class D
SHV-2, lysate of ec306 = SHV-2, lysate of ec306 (Escherichia coli, UniProt P0A9Z7); assay: Inhibition of ceftazidime hydrolysis by bacterial lysate
OXA-10, lysate of KP1007 = OXA-10, lysate of KP1007 (Pseudomonas aeruginosa, UniProt P14489); assay: as above
[2] = test system: EC1007 Escherichia coli KPC-3; assay: Checkerboard assay, biapenem potentiation; conditions: Biapenem MIC 8-fold; EC1007 KPC-3 class A
SHV-5, lysate of ec308 = SHV-5, lysate of ec308 (Escherichia coli, UniProt P0AD63, E235K/G234S); assay: Inhibition of ceftazidime hydrolysis by bacterial lysate
[3] = target: various β-lactamases (bacterial lysates) (Escherichia coli, UniProt Q53TY8); assay: Inhibition of nitrocefin cleavage by bacterial lysates, Table 11; format: biochemical; conditions: lysate EC1010 pAmpC (CMY-6), read-out: NCF IC50 EC1010 pAmpC (CMY-6)

## O=C(O)C[C@@H]1CC[C@H](NC(=O)Cc2ccccc2)B(O)O1 [Compound 6, 2-((3R,6S)-2-hydroxy-3-(2-phenylacetamido)-1,2-oxaborinan-6-yl)acetic acid]
[1]
  MPC8: Z (MPC8 of greater than 1 μg/mL)
SHV-2, lysate of ec306
  IC50: 0.344 to 3.44 µM
OXA-10, lysate of KP1007
  IC50: > 3.44 µM
[2]
  MPC8: X (MPC8 of less than 0.16 μg/mL)
SHV-5, lysate of ec308
  IC50: > 3.44 µM
[3]
  IC50: > 6.87 µM
